Data on ten molecules can be found in ChEMBL document CHEMBL5465560, “Selectivity Literature for EUbOPEN Chemogenomic Library” (2024).

The target in data set [1] is T1, NUAK family SNF1-like kinase 1 (Homo sapiens) (UniProt O60285).
T1 sequence (whole entry): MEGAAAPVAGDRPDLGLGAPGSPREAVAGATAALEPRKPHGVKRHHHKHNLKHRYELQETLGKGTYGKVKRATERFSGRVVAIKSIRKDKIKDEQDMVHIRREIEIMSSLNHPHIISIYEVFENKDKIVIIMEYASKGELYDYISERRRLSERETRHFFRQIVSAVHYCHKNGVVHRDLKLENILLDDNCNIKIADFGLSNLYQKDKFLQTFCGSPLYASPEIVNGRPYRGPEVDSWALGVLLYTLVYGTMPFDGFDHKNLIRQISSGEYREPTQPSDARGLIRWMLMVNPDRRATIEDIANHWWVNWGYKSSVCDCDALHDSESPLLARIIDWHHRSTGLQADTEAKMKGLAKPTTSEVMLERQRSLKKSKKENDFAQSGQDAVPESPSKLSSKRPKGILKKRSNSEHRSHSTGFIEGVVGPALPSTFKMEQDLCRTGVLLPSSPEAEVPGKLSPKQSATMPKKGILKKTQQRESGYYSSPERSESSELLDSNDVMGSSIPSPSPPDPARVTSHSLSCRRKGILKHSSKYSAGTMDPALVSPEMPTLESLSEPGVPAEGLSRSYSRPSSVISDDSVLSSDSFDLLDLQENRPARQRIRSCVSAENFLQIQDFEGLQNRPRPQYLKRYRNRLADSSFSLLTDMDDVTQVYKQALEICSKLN
Put plainly: Selectivity interaction (Kinase panel (Carna Biosciences)) EUB0001542aTs NUAK1. Conditions: at 1 µM.

Data set [2] has as its target Serine/threonine-protein kinase ATR (Homo sapiens) (UniProt Q13535). Put plainly: Selectivity interaction (Kinase panel (KiNativ target engagement assay in Jurkat cells)) EUB0001635a ATR. Particulars: at 1 µM. The format is cell-based.
For data set [3], the target named is Ephrin type-A receptor 2 (Homo sapiens) (UniProt P29317). Put plainly: Selectivity interaction (SelectScreen profiling (Invitrogen)) EUB0000607a EPHA2. Conditions: at 2 µM.
In data set [4] the target is Histone-lysine N-methyltransferase, H3 lysine-36 specific (Homo sapiens) (UniProt Q96L73). Particulars: at 1 µM.
The target in data set [5] is Serine/threonine-protein kinase PAK 2 (Homo sapiens) (UniProt Q13177). Put plainly: Selectivity interaction (KinomeScan (DiscoverX)) EUB0000229b PAK2. Conditions: at 10 µM.
Serine/threonine-protein kinase PAK 2 (Homo sapiens), sequence (Q13177 whole entry, canonical isoform): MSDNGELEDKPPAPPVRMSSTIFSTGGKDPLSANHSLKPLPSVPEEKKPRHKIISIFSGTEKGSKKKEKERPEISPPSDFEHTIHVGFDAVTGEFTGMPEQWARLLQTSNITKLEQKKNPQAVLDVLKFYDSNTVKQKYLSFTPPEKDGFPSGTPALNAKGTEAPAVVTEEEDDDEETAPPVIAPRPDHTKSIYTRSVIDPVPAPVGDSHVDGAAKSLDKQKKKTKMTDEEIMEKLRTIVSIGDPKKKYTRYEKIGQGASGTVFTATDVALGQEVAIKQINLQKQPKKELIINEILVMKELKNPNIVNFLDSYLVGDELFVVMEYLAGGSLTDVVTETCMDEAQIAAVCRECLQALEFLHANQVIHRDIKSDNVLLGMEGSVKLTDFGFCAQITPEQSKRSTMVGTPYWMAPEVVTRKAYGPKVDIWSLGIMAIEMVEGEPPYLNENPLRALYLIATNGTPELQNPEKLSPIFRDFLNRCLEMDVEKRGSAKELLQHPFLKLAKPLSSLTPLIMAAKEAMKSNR
Data set [6] addresses Phosphatidylinositol 4,5-bisphosphate 3-kinase catalytic subunit gamma isoform (Homo sapiens) (UniProt P48736). The data set can be described thus: Selectivity interaction (KinomeScan (DiscoverX)) EUB0000655a PIK3CG. Particulars: at 10 µM.
The target of data set [7] is Nav1.5 (SCN5A) (Homo sapiens, UniProt Q14524). Put plainly: Selectivity interaction (Panel of kinases, GPCRs, ion channels and transporters (enzymatic assay)) EUB0000266bCl SCN5A.
Data set [8] concerns the target T2, Serine/threonine-protein kinase 3 (Homo sapiens) (UniProt Q13188).
T2 sequence (whole entry): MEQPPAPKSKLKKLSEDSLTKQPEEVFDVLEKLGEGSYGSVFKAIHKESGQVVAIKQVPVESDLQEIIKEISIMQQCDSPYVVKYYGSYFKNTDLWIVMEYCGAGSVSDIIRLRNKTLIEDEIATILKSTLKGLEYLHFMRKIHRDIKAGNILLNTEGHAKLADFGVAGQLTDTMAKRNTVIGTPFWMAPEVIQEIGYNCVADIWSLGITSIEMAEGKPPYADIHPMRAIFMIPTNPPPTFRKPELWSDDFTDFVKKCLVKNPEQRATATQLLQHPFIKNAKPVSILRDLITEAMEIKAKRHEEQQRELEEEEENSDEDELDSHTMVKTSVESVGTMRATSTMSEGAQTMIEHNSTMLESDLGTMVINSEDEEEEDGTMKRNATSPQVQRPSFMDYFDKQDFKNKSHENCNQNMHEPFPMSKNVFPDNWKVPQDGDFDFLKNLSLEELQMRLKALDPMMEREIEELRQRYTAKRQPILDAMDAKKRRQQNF
Put plainly: Selectivity interaction (ActivX KiNativ screen (ex vivo kinase selectivity in human PBMCs)) EUB0001619a STK3. Type of data set: cell-based. Particulars: PBMC, at 1 µM.

The target of data set [9] is Non-receptor tyrosine-protein kinase TYK2 (Homo sapiens, UniProt P29597). The data set can be described thus: Selectivity interaction (KinomeScan (DiscoverX)) EUB0001619a TYK2. Particulars: at 1 µM.
Data set [10] addresses Cyclin-dependent kinase 10 (Homo sapiens) (UniProt Q15131). Put plainly: Selectivity interaction (ActivX KiNativ screen (kinase selectivity in THP-1 cell lysates)) EUB0000639a CDK10. Type of data set: subcellular. Conditions: lysate.
Data set [11] deals with Activin receptor type-2B (Homo sapiens) (UniProt Q13705). Put plainly: Selectivity interaction (Kinase panel (Invitrogen)) EUB0000639a ACVR2B. Conditions: at 200 nM.
Data set [12] concerns the target T3, Serine/threonine-protein kinase TNNI3K (Homo sapiens) (UniProt Q59H18).
T3 sequence (whole entry): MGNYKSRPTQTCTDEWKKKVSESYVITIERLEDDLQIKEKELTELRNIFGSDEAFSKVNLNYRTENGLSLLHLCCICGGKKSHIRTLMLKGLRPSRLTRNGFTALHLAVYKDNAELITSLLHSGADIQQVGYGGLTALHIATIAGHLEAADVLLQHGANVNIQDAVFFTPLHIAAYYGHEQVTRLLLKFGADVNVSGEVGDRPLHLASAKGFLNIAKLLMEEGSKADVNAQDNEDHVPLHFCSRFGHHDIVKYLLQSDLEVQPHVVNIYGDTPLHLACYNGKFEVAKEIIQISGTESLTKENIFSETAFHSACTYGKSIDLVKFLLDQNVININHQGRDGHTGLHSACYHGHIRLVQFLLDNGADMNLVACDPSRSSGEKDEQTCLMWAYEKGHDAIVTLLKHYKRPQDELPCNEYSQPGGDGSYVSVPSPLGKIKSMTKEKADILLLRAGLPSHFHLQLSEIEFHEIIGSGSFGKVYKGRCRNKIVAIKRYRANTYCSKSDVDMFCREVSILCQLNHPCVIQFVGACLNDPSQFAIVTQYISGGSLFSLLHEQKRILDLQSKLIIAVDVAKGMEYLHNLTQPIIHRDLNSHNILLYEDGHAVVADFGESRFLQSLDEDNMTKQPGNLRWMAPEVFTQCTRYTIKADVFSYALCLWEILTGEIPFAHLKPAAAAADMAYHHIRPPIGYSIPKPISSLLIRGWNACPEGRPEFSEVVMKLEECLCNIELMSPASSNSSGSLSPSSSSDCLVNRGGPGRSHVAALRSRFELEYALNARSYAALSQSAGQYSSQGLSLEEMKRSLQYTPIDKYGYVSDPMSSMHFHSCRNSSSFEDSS
The data set can be described thus: Selectivity interaction (KinomeScan (DiscoverX)) EUB0000045b TNNI3K.

SMILES strings stand for the structures. Where only a bound is given, the exact number is not on record here.

Cyclin-dependent kinase 10 (Homo sapiens), sequence (Q15131 whole entry): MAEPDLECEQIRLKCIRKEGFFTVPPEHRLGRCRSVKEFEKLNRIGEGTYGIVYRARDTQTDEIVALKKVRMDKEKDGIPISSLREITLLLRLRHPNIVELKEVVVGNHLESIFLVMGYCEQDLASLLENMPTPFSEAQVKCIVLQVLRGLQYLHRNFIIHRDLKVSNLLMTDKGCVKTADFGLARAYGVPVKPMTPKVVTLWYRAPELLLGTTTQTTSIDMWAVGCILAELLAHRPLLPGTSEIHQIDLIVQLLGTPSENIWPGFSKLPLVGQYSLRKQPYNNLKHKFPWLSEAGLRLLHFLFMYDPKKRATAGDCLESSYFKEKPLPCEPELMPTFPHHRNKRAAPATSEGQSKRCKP
Phosphatidylinositol 4,5-bisphosphate 3-kinase catalytic subunit gamma isoform (Homo sapiens), sequence (P48736 whole entry, looked up, canonical isoform): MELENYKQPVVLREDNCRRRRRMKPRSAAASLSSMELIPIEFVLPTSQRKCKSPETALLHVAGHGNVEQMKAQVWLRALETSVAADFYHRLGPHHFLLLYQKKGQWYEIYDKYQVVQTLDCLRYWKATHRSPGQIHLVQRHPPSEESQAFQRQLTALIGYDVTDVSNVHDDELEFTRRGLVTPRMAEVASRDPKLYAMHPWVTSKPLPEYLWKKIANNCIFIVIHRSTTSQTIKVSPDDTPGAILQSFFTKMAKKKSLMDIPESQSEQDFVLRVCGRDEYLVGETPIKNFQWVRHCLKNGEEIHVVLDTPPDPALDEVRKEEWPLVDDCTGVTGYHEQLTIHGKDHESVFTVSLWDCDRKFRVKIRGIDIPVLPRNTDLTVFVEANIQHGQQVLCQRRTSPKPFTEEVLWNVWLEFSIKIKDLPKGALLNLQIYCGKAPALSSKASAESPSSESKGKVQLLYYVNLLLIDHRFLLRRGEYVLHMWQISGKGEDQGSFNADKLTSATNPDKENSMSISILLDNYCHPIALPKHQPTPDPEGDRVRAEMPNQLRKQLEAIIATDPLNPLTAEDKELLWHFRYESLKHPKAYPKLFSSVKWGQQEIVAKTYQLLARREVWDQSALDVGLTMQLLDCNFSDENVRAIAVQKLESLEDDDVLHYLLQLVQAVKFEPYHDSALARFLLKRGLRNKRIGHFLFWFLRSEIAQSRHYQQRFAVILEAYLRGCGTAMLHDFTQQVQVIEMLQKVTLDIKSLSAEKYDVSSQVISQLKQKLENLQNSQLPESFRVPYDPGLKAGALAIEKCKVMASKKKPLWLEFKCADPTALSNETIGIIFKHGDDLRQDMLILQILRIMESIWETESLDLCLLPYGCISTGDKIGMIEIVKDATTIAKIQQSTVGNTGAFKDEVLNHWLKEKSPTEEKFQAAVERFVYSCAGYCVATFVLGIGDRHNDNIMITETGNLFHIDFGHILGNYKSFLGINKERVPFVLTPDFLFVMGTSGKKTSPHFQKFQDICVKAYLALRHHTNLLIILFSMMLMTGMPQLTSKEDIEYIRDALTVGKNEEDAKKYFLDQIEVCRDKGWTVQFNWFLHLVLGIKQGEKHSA
Serine/threonine-protein kinase ATR (Homo sapiens), sequence (Q13535 whole entry, looked up): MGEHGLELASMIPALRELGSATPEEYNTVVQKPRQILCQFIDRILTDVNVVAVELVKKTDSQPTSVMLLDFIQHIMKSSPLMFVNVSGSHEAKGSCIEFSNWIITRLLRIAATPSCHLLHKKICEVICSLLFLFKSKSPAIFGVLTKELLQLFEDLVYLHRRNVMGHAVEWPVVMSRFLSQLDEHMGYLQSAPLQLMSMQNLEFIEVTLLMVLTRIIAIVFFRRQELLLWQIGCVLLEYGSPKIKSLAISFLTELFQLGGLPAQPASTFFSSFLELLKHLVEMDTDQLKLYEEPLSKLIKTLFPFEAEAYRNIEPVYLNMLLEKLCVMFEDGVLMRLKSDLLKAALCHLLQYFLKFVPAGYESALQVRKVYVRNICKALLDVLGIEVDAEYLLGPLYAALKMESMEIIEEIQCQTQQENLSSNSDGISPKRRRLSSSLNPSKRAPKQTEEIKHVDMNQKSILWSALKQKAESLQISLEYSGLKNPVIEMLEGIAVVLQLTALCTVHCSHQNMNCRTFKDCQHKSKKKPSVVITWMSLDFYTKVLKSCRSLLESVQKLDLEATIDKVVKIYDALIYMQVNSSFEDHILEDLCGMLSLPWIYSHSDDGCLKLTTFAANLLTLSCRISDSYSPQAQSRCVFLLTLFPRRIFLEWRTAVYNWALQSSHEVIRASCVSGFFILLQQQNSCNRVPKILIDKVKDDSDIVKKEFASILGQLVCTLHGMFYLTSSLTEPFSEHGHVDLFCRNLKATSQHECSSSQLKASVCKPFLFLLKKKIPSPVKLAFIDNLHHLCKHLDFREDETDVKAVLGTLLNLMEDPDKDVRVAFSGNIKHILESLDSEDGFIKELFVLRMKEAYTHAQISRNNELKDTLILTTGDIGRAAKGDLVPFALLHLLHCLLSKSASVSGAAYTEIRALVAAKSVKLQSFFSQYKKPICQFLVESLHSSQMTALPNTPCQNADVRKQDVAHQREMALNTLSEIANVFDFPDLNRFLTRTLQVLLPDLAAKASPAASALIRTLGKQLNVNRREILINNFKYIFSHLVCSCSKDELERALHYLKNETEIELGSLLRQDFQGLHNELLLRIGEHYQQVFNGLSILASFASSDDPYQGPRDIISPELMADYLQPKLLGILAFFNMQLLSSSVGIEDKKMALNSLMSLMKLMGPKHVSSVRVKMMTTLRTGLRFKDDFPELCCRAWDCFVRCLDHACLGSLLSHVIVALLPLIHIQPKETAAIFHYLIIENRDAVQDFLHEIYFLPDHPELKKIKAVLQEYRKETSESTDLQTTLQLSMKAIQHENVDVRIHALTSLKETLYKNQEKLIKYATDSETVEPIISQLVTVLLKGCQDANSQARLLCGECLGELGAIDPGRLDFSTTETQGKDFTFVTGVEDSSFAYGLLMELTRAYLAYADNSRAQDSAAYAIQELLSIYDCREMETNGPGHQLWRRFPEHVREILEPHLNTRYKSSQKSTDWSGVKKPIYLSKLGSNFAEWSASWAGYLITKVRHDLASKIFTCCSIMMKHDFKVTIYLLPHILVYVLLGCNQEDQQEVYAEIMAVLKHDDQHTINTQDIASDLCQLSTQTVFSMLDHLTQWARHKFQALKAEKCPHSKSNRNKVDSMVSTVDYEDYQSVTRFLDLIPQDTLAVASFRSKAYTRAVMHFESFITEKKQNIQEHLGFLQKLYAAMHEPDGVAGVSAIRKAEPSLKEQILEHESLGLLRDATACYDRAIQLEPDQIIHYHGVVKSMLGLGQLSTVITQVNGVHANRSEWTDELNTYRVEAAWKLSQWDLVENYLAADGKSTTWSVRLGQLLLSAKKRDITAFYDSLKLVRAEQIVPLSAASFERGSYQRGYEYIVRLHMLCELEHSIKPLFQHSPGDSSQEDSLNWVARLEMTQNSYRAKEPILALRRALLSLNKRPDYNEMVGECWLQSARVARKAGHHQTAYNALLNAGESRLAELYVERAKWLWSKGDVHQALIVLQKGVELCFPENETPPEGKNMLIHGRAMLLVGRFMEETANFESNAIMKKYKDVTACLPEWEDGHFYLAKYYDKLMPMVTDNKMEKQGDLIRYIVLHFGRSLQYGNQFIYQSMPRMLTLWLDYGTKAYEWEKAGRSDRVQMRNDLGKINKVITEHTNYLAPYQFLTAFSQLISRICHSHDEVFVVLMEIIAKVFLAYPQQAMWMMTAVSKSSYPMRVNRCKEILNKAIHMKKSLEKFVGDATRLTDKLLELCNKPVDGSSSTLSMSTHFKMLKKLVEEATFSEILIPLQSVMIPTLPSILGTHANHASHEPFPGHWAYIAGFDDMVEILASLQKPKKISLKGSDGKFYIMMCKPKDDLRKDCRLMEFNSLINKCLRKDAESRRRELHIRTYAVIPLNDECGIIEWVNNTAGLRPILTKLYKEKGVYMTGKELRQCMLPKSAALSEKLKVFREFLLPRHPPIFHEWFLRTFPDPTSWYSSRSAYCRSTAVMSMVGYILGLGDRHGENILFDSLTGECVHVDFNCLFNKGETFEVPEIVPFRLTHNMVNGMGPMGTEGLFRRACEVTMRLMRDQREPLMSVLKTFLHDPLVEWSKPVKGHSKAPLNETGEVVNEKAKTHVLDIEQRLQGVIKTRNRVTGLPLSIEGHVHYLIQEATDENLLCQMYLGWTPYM

For the molecule `Cn1cc(Nc2nccc(N3CC4CCC(C3)N4C(=O)[C@@H]3CC3(F)F)n2)cn1`, the % of inhibition in [1] is 60%.

In the case of `C=CC(=O)Nc1ccc(C(=O)Nc2[nH]nc3c2CN(C(=O)N[C@H](CN(C)C)c2ccccc2)C3(C)C)cc1`, the % of engagement in data set [2] is -11.3%.

Turning to `CNC(=O)Nc1ccc(-c2nc(N3CC4CCC(C3)O4)c3cnn(C4CCC5(CC4)OCCO5)c3n2)cc1`, the % of inhibition in data set [3] stood at 8%.

`CNCCN1CCC(c2cc(CN(C)C(=O)c3cccc(Oc4ccccc4)c3)ccn2)CC1`: the % activity in [4] was above 90%.

In data set [5], `COc1cc(N(C)c2ccnc3ccc(C(F)(F)F)cc23)cc(OC)c1OC` returned a % binding of 77%.

`CN(C)CCOc1ccc(-c2nc(-c3ccncc3)c(-c3ccc4c(c3)CC/C4=N\O)[nH]2)cc1` showed a % of control in data set [6] of 84%.

`CCn1c(-c2nc3cc(C(=O)N4CCCC(N)C4)ccc3n2C)cc2ccccc21` (configuration not stated): in [7], the XC50 was 31.6 µM.

As to `N#Cc1cccc(-c2c[nH]c3ncnc(N4CCOCC4)c23)c1`, the % of inhibition in [8] came out at 71%. In addition, the % of control in data set [9] worked out at 75%.

Consider `CC[C@@H]1[C@H](F)C(=O)N[C@@H]1COc1nccc2cc(C(N)=O)c(OC)cc12` [ZIMLOVISERTIB], for which the % of inhibition was 0.5% in [10] (at 0.01 µM); 6.6% in data set [10] (at 0.04 µM); -14.2% in data set [10] (at 0.2 µM); 6.3% in [10] (at 1 µM); 19.6% in data set [10] (at 5 µM); 5.32% in data set [11].

Take `C=CC(=O)Nc1cc(-n2c(=O)ccc3cnc4ccc(-c5ccc(NS(C)(=O)=O)cc5)cc4c32)ccc1C`: the % of control amounted to 100% in data set [12] (at 1 µM) and 77% in [12] (at 10 µM).
